Here are results for 29 molecules from ChEMBL document CHEMBL1800003, “In vivo and in vitro SAR of tetracyclic MAPKAP-K2 (MK2) inhibitors. Part I” (Bioorg Med Chem Lett, 2010).

For data set [1], the system named is PBMC. Briefly: Antiinflammatory activity against LPS-induced TNFalpha release in human PBMC preincubated for 30 mins measured after 3 hrs of LPS stimulation. In kind it is functional, cell-based.
The target in data set [2] is Mitogen-activated protein kinase 9 (Homo sapiens, UniProt P45984). As to the kind of experiment: Inhibition of JNK2.
Data set [3] has as its target T1, MAP kinase-activated protein kinase 2 (Homo sapiens, UniProt P49137). As to the kind of experiment: Inhibition of MK2 in human THP-1 cells assessed as inhibition of anisomycin stimulated ser78-hsp27 phosphorylation after 10 mins by FACS analysis. It is filed as cell-based. For orientation: Flow cytometry measures light scatter and fluorescence of single cells or particles in a stream.

Data set [4] addresses T1, MAP kinase-activated protein kinase 2. As to the kind of experiment: Inhibition of human MK2 using hsp27 peptide biotinyl-AYSRALSRQLSSGVSEIRCOOH as substrate after 45 mins by FRET assay.
The nature of data set [5]: Drug level in LPS-stimulated OFI mouse plasma at 100 mg/kg, po after 2 hrs by LC-MS/MS analysis. Set-up: dose 100 mg/kg, route oral. In kind it is ADME, organism-based.
Data set [6] concerns Mus musculus. As to the kind of experiment: Antiinflammatory activity in OFI mouse assessed as inhibition of LPS-induced TNFalpha release at 100 mg/kg, po dosed 1 hr before LPS challenge and measured after 1 hr post LPS challenge by ELISA. In kind it is functional. (In general: ELISA stands for enzyme-linked immunosorbent assay.)

Chain of Mitogen-activated protein kinase 9 (P45984 whole entry): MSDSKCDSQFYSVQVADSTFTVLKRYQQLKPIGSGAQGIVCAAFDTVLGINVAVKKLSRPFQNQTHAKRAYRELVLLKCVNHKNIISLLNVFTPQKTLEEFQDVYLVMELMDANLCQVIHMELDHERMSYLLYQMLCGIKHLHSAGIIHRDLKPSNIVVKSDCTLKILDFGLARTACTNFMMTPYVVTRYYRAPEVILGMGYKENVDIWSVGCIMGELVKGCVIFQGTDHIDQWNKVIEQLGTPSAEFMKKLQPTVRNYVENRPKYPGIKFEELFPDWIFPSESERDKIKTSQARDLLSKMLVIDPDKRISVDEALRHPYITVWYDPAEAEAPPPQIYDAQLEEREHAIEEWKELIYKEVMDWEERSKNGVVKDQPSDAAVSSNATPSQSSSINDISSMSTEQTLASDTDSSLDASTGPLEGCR
T1 sequence (P49137 whole entry): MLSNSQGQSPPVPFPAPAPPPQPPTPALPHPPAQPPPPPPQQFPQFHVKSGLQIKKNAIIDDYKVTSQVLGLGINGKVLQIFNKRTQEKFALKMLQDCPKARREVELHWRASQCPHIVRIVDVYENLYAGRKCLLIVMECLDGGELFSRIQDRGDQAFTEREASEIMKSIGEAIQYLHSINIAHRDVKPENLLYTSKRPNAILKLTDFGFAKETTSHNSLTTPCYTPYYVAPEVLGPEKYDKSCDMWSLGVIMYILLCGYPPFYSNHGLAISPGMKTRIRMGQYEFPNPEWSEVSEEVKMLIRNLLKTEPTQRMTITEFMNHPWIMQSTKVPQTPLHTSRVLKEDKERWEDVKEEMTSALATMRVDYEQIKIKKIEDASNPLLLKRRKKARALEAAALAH

Usually IC50 stands for the concentration needed to halve the response being measured. Regarding `COCCOc1cncc(-c2cc3c(ccc4c5c([nH]c43)CCNC5=O)cn2)c1`, the IC50 stood at 260 nM in data set [1], 649 nM in data set [2], 700 nM in data set [3] and 12 nM in data set [4].

Take `O=C1NCCCc2[nH]c3c(ccc4cnc(-c5ccccc5OCCN5CCOCC5)cc43)c21`: the IC50 was over 3000 nM in data set [1] and 167 nM in data set [4].

In the case of `O=C1NCCCc2[nH]c3c(ccc4cnc(-c5cncc(OCCN6CCOCC6)c5)cc43)c21`, the IC50 in data set [1] was 8600 nM; in data set [2], 3170 nM; in data set [3], over 30000 nM; in data set [4], 80 nM.

Regarding `COCCOc1cncc(-c2cc3c(ccc4c5c([nH]c43)CCCNC5=O)cn2)c1`, the IC50 in data set [1] was determined as 8380 nM; in data set [2] it was 2700 nM; in data set [3] it was 8300 nM; in data set [4], 96 nM.

Consider `COc1ccc(-c2cc3c(ccc4c5c([nH]c43)CCCNC5=O)cn2)cc1`, for which the figures for the IC50 in data set [1] and in data set [4] were 580 nM and 72 nM, respectively.

For the molecule `NCc1[nH]c2c(ccc3cnc(/C=C/c4ccccc4)cc32)c1C(=O)O`, the IC50 in data set [1] turned out to be 735 nM; in data set [4], 14 nM.

As for `CNCc1[nH]c2c(ccc3cnc(/C=C/c4ccccc4)cc32)c1C(=O)O`, the IC50 in data set [1] worked out at 1240 nM; in data set [4], 60 nM.

Regarding `O=C1NOCc2[nH]c3c(ccc4cnc(/C=C/c5ccccc5)cc43)c21`, the IC50 in data set [1] amounted to 46 nM; in data set [4], 25 nM.

In the case of `COc1ccc(-c2cc3c(ccc4c5c([nH]c43)CN(C)NC5=O)cn2)cc1`, the IC50 in data set [1] came to 2360 nM; in data set [2] it was 547 nM; in data set [3] it was 875 nM; in data set [4], 23 nM.

As for `O=C1NCc2[nH]c3c(ccc4cnc(/C=C/c5ccccc5)cc43)c21`, the results for the IC50 in data set [1], in data set [2] and in data set [4] were 14 nM, 2 nM and 10 nM, respectively.

As to `O=C1NCc2[nH]c3c(ccc4cnc(/C=C/c5ccc(CN6CCOCC6)cc5)cc43)c21`, the IC50 in data set [1] was 5 nM; in data set [2], 22 nM; in data set [4], 8 nM.

`O=C1NCc2[nH]c3c(ccc4cnc(/C=C/c5cccc(CCN6CCOCC6)c5)cc43)c21`: the IC50 in data set [1] came out at 14 nM; in data set [2] it was 34 nM; in data set [4], 10 nM.

Consider `O=C1NCc2[nH]c3c(ccc4cnc(Nc5cccc(F)c5)cc43)c21`, for which the IC50 in data set [1] turned out to be 15 nM; in data set [2] it was 1 nM; in data set [4] it was 73 nM.

With `COc1ccc(-c2cc3c(ccc4c5c([nH]c43)CNC5=O)cn2)cc1`, the values for the IC50 in data set [1] and in data set [4] were 198 nM and 27 nM, respectively.

Regarding `O=C1NCc2[nH]c3c(ccc4cnc(-c5ccccc5F)cc43)c21`, the IC50 in data set [1] stood at 912 nM; in data set [2] it was 30 nM; in data set [3], 5080 nM; in data set [4], 85 nM.

Consider `O=C1NCc2[nH]c3c(ccc4cnc(-c5ccccc5C(F)(F)F)cc43)c21`, for which the IC50 in data set [4] came to 900 nM.

As for `O=C1NCc2[nH]c3c(ccc4cnc(-c5cccc(OCCN6CCOCC6)c5)cc43)c21`, the IC50 in data set [1] worked out at 280 nM; in data set [2], 11 nM; in data set [3], 1280 nM; in data set [4], 32 nM.

For the molecule `O=C1NCc2[nH]c3c(ccc4cnc(-c5cncc(OCCN6CCOCC6)c5)cc43)c21`, the IC50 came out at 556 nM in data set [1], 75 nM in data set [2], 9330 nM in data set [3] and 5 nM in data set [4].

With `COCCOc1cncc(-c2cc3c(ccc4c5c([nH]c43)CNC5=O)cn2)c1`, the IC50 in data set [1] was 416 nM; in data set [2] it was 38 nM; in data set [3], 1680 nM; in data set [4], 5 nM.

As to `CN1Cc2[nH]c3c(ccc4cnc(/C=C/c5ccccc5)cc43)c2C1=O`, in data set [4], inhibition was half-maximal at 1190 nM (IC50).

For `O=C1NCCc2[nH]c3c(ccc4cnc(/C=C/c5ccc(CN6CCOCC6)cc5)cc43)c21`, the IC50 turned out to be 9 nM in data set [1], 198 nM in data set [2] and 1 nM in data set [4].

Turning to `O=C1NCCc2[nH]c3c(ccc4cnc(/C=C/c5cccc(CCN6CCOCC6)c5)cc43)c21`, the IC50 is 32 nM in data set [1], 76 nM in data set [2] and 5 nM in data set [4].

On to `COc1ccc(-c2cc3c(ccc4c5c([nH]c43)CCNC5=O)cn2)cc1F`, for which the IC50 amounted to 97 nM in data set [1], 1420 nM in data set [2], 500 nM in data set [3] and 15 nM in data set [4].

`O=C1NCCc2[nH]c3c(ccc4cnc(-c5cccc(OCCN6CCOCC6)c5)cc43)c21`: the IC50 turned out to be 294 nM in data set [1], 269 nM in data set [2], 1300 nM in data set [3] and 16 nM in data set [4].

For the molecule `O=C1NCCc2[nH]c3c(ccc4cnc(-c5cncc(OCCN6CCOCC6)c5)cc43)c21`, the IC50 is 283 nM in data set [1], 418 nM in data set [2], 2500 nM in data set [3] and 10 nM in data set [4].

The term inhibition in vivo denotes the relative decrease from the control value, in per cent. On to `COc1ccc(-c2cc3c(ccc4c5c([nH]c43)CCC5=O)cn2)cc1F`, for which the concentration at 2 h in data set [5] came out at 13 µM. In addition, in data set [6], the inhibition in vivo at 100 mg/kg worked out at 73%. The IC50 in data set [1] was 1400 nM; in data set [2], 2200 nM; in data set [3] it was 5800 nM; in data set [4], 160 nM.

Regarding `O=C1NCCCc2[nH]c3c(ccc4cnc(/C=C/c5ccccc5)cc43)c21`, the IC50 came out at 202 nM in data set [1], 85 nM in data set [2] and 116 nM in data set [4].

In the case of `O=C1NCCCc2[nH]c3c(ccc4cnc(/C=C/c5ccc(CN6CCOCC6)cc5)cc43)c21`, the IC50 in data set [1] turned out to be 140 nM; in data set [2], 980 nM; in data set [4], 253 nM.

As for `O=C1NCCCc2[nH]c3c(ccc4cnc(/C=C/c5cccc(CCN6CCOCC6)c5)cc43)c21`, the IC50 in data set [1] was over 1000 nM; in data set [2], 700 nM; in data set [4], 172 nM.
